Reference: patent US20060074243A1, “Hydroxamic acid and amide compounds and their use as protease inhibitors” (Pharmacia Corporation, priority 2002, published 2006)
pKi: −log10 of the molar value.

Experiments:
Test in all cases: In vitro MMP inhibition analysis (fluorogenic peptide substrate cleavage), Ki
Assay type in all cases: biochemical
Settings in all cases: Table 2
Human recombinant MMP-14 = biological target: T1, Human recombinant MMP-14 (Homo sapiens, UniProt P50281)
T1 construct: The catalytic domain enzyme was expressed in E. coli inclusion bodies, solubilized in urea; made in house
Description: (§1) Several compounds and salts were analyzed in an in vitro assay to determine their ability to inhibit the MMP cleavage of peptide substrates. Inhibition constant (Ki) were calculated from the assayed compound-MMP interactions.
(§2) Human recombinant MMP-1, MMP-2, MMP-9, MMP-13, and MMP-14 were used in this assay. All enzymes were prepared in Assignee's laboratories following usual laboratory procedures. Protocols for the preparation and use of these enzymes are available in the scientific literature. See, e.g., Enzyme Nomenclature (Academic Press, San Diego, Calif., 1992) (and the citations therein). See also, Frije et al., J. Biol. Chem., 26(24), 16766-73 (1994).
The MMP-14 full length cDNA was provided by Dr. Gregory Goldberg of Washington University (St. Louis, Mo.). The catalytic domain enzyme was expressed in E. coli inclusion bodies, solubilized in urea, purified on a preparative […] reverse phase HPLC column, and then refolded in the presence of zinc acetate and purified for use.
(§3) All MMPs were activated using 4-aminophenylmercuric acetate (“APMA”, Sigma Chemical, St. Louis, Mo.) or trypsin. MMP-9 also was activated using human recombinant MMP-3 (purified in Assignee's laboratory following standard cloning and purification techniques).
(§4) The following fluorogenic, methoxycoumarin-containing polypeptide substrate (I) was used in the MMP inhibition assays: MCA-ArgProLeuGlyLeuDpaAlaArgGluArgNH2 (I) “MCA” is 7-methoxycoumarin-4-yl acetyl. Substrate (I) was prepared Assignee's laboratory. In the absence of MMP inhibitory activity, the substrate is cleaved at the Gly-Leu peptide bond. This cleavage separates the highly fluorogenic peptide from the 2,4-dinitrophenyl quencher, thus resulting in increase of fluorescent intensity.
(§5) The stock solutions of the assayed compounds and salts were prepared in […] (DMSO). These stock solutions were diluted in Buffer A (100 mM Tris-HCl, 100 mM NaCl, 10 mM CaCl2, 0.05% polyoxyethylene 23 lauryl ether, pH 7.5) to obtain solutions with different compound concentrations, i.e., assay solutions with different concentrations of the assayed […] compound. The experiment controls contained the same amount of Buffer A/DMSO as the assayed sample, but contained none of the tested compound or salt.
(§6) The assays from which the Ki determinations were made were performed as follows. The assayed compound samples were incubated in separate wells of untreated white polystyrene plates (Nunc Nalgene International, Rochester, N.Y.), and analyzed on a Tecan SpectraFlour Plus plate reader. The excitation wavelength was 330 nm, and the emission wavelength—420 nm. All samples (assayed compounds and controls) were incubated in separate plate wells at room temperature for 1 hr in the presence of 4 μM of MMP substrate (I). In the absence of MMP inhibitory activity, substrate (I) was cleaved at the Gly-Leu bond resulting in an increase of relative fluorescence. Inhibition was observed as a reduced rate of this increase in relative fluorescence. […] This protocol is a modification of method by Knight et al., FEBS Lett., 296(3), 263-266 (1992). Apparent inhibitory constants were determined by non-linear regression of reaction velocity as a function of inhibitor and enzyme concentration using Morrison's equation, as described by Kuzmic, Anal. Biochem. 286, 45-50 (2000). Modifications were made in the non-linear regression method to allow a common control reaction rate and effective enzyme concentration to be shared between all dose-response relationships on a given assay plate. Since the substrate concentration was chosen to be at or below the Km, the apparent Ki's from this analysis were reported as Ki's without correction for the influence of substrate.
(§7) The above protocols were used to determine Ki constants for the compounds in Examples 2-35 above. All Ki values in Table 1 are given in nM units.

Human recombinant MMP-9 = biological target: T2, Human recombinant MMP-9 (Homo sapiens, UniProt P14780)
T2 construct: made in house; host or cells: MMP-9-transfected HT1080 cells (spent media)
Outline: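 Recombinant MMP-9 purified from transfected HT1080 cell media, activated with APMA, trypsin or recombinant MMP-3, assayed in Tris buffer pH 7.5 with CaCl2 and 4 μM fluorogenic MCA/Dpa peptide, 1 h at room temperature (ex 330/em 420 nm). Ki from Morrison-equation regression of velocity; substrate at or below Km, uncorrected.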

Human recombinant MMP-1 = biological target: T3, Human recombinant MMP-1 (Homo sapiens, UniProt P03956)
T3 construct: made in house; host or cells: MMP-1-transfected HT-1080 cells (spent media)
T3 sequence (P03956 100-469): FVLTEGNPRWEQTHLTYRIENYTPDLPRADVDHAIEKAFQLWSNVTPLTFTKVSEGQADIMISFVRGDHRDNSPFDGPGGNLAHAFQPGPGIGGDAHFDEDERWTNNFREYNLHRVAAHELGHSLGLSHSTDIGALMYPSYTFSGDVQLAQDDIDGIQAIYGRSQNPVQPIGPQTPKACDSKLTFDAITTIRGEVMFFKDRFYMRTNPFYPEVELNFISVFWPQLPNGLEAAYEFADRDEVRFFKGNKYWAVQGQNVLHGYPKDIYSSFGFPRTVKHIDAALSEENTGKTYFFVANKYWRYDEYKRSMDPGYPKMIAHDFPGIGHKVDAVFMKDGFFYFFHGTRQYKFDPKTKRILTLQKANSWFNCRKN
Description: as §1, §2
The MMP-1 proenzyme was purified from the spent media of MMP-1-transfected HT-1080 cells provided by Dr. Harold Welgus of Washington University (St. Louis, Mo.). The protein was purified on a zinc chelating column.
as §3, §4, §5, §6, §7

T2 sequence (P14780 107-707 limits assumed): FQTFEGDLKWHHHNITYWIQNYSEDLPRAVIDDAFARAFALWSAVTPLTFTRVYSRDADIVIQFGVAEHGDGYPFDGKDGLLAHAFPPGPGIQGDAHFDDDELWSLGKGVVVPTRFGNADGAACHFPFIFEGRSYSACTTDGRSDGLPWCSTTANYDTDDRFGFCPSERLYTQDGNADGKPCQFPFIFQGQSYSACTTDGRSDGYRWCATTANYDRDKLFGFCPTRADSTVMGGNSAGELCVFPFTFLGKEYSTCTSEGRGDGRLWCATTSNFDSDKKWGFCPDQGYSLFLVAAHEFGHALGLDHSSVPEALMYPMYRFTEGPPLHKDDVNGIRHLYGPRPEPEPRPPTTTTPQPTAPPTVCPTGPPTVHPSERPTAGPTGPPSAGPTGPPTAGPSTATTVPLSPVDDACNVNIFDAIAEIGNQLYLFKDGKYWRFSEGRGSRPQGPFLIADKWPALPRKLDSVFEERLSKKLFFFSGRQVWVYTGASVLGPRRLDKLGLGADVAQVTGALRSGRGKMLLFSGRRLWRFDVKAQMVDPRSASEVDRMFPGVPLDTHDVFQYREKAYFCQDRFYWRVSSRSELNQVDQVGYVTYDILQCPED

| pKi (Human recombinant MMP-14) | pKi (Human recombinant MMP-9) | pKi (Human recombinant MMP-1) | SMILES |
| --- | --- | --- | --- |
| 7.56 | 9.20 | 6.33 | CCc1ccc(-c2ccc(S(=O)(=O)C3(C(=O)NO)CCOCC3)cc2)cc1 [Example 79] |
| 5.02 | 6.88 | < 5.00 | CCCCOc1ccc(-c2ccc(S(=O)(=O)C3(C(=O)NO)CCOCC3)cc2)cc1C(F)(F)F [Example 78] |
| < 5.00 | 9.03 | < 5.00 | O=C(NO)C1(S(=O)(=O)c2ccc(-c3cnc(CCCC(F)(F)F)cn3)cc2)CCN(C2CC2)CC1 [Example 218] |
| 6.76 | 9.40 | 5.89 | CCCCOc1ccc(-c2ccc(S(=O)(=O)C3(C(=O)NO)CCOCC3)cc2)cc1 [Example 77] |
| 6.33 | 9.12 | 5.99 | O=C(NO)C1(S(=O)(=O)c2ccc(-c3ccc(OCC(F)(F)C(F)(F)F)cc3)cc2)CCOCC1 [Example 95] |
| 5.12 | 7.66 | 5.97 | CC(C)(C)NC(=O)c1ccc(-c2ccc(S(=O)(=O)C3(C(=O)NO)CCOCC3)cc2)nc1 [Example 205] |
| 5.46 | 9.12 | < 5.00 | COCCOC1CCC(C(=O)NO)(S(=O)(=O)c2ccc(-c3cnc(CCCC(F)(F)F)cn3)cc2)CC1 (stereo not drawn) [Example 210] |
| 5.68 | 6.67 | < 5.00 | O=C(NO)C1(S(=O)(=O)c2ccc(-c3ccc(OCC(F)(F)C(F)(F)F)c(C(F)(F)F)c3)cc2)CCOCC1 [Example 90] |
| 5.23 | 8.27 | < 5.00 | COCCC(C(=O)NO)S(=O)(=O)c1ccc(-c2ccc(CCC(F)(F)C(F)(F)F)cc2)cc1 (stereo not drawn) [Example 177] |
| 6.86 | 10.28 | 5.65 | CCCCc1ccc(-c2ccc(S(=O)(=O)C3(C(=O)NO)CCOCC3)cc2)nc1 [Example 89] |
| < 5.00 | 7.46 | 5.82 | O=C(c1ccc2cc(-c3ccc(S(=O)(=O)C4(C(=O)NO)CCOCC4)cc3)ccc2c1)N1CCCCC1 [Example 223] |
| < 5.60 | 7.30 | 6.60 | O=C(NCC1CC1)c1ccc2cc(-c3ccc(S(=O)(=O)C4(C(=O)NO)CCOCC4)cc3)ccc2c1 [Example 220] |
| 5.89 | 7.88 | 6.27 | CCCCNC(=O)c1cnc(-c2ccc(S(=O)(=O)C3(C(=O)NO)CCOCC3)cc2)cn1 [Example 184] |
| 7.57 | 8.37 | 7.09 | O=C(NO)C1(S(=O)(=O)c2ccc(-c3ccc4c(c3)OCO4)cc2)CCOCC1 [Example 188] |
| 5.59 | 7.88 | 5.73 | C#CCN(C)C(=O)c1ccc2cc(-c3ccc(S(=O)(=O)C4(C(=O)NO)CCOCC4)cc3)ccc2c1 [Example 216] |
| 5.16 | 7.78 | 5.73 | CN(C)C(=O)c1ccc2cc(-c3ccc(S(=O)(=O)C4(C(=O)NO)CCOCC4)cc3)ccc2c1 [Example 221] |
| 5.90 | 9.24 | 5.39 | O=C(NO)C1(S(=O)(=O)c2ccc(-c3ccc(CCCC(F)(F)F)cn3)cc2)CC=CC1 [Example 202] |
| < 5.00 | 8.28 | < 5.00 | CCN1CCC(C(=O)NO)(S(=O)(=O)c2ccc(-c3cnc(CCCC(F)(F)F)cn3)cc2)CC1 [Example 217] |

| pKi (Human recombinant MMP-14) | pKi (Human recombinant MMP-9) | pKi (Human recombinant MMP-1) | SMILES |
| --- | --- | --- | --- |
| 6.57 | 9.86 | 5.89 | COCCOC1CCC(C(=O)NO)(S(=O)(=O)c2ccc(-c3ccc(CCCC(F)(F)F)cn3)cc2)CC1 (stereo not drawn) [Example 209] |
| 6.52 | 8.95 | 6.01 | COCCOc1ccc(-c2ccc(S(=O)(=O)C3(C(=O)NO)CCOCC3)cc2)cc1 [Example 70] |
| 5.34 | 7.66 | 5.96 | CC(C)CNC(=O)c1cnc(-c2ccc(S(=O)(=O)C3(C(=O)NO)CCOCC3)cc2)cn1 [Example 186] |
| 5.75 | 7.49 | < 5.00 | O=C(NO)C1(S(=O)(=O)c2ccc(-c3nc4ccccc4s3)cc2)CCOCC1 [Example 195] |
| < 5.00 | 8.32 | < 5.00 | CCN1CCC(C(=O)NO)(S(=O)(=O)c2ccc(-c3cnc(CCC(F)(F)F)cn3)cc2)CC1 [Example 213] |
| 5.60 | 9.23 | < 5.00 | CC(C)CCc1cnc(-c2ccc(S(=O)(=O)C3(C(=O)NO)CCOCC3)cc2)cn1 [Example 169] |
| < 5.00 | 7.40 | 5.90 | CC[C@H](C)NC(=O)c1ccc(-c2ccc(S(=O)(=O)C3(C(=O)NO)CCOCC3)cc2)nc1 [Example 208] |
| 5.20 | 8.56 | < 5.00 | CCCCNc1cnc(-c2ccc(S(=O)(=O)C3(C(=O)NO)CCOCC3)cc2)cn1 [Example 83] |
| 6.58 | 10.00 | 5.78 | CC(C)CC#Cc1cnc(-c2ccc(S(=O)(=O)C3(C(=O)NO)CCOCC3)cc2)cn1 [Example 166] |
| 6.36 | 9.17 | 5.34 | CN(C)C(=O)N1CCC(C(=O)NO)(S(=O)(=O)c2ccc(-c3ccc(CCC(F)(F)C(F)(F)F)cc3)cc2)CC1 [Example 173] |
| < 5.00 | 5.90 | < 5.00 | O=C(NO)C1(S(=O)(=O)c2ccc(-c3cnc4ccccc4n3)cc2)CCOCC1 [Example 194] |
| 5.94 | 8.99 | < 5.00 | O=C(NO)C1(S(=O)(=O)c2ccc(-c3cnc(OCCC4CCCC4)cn3)cc2)CCOCC1 [Example 180] |
| < 5.00 | 7.53 | 5.84 | O=C(c1ccc2cc(-c3ccc(S(=O)(=O)C4(C(=O)NO)CCOCC4)cc3)ccc2c1)N1CCOCC1 [Example 222] |
| < 5.00 | 8.87 | < 5.00 | O=C(N1CCCCC1)N1CCC(C(=O)NO)(S(=O)(=O)c2ccc(-c3ccc(CCC(F)(F)C(F)(F)F)cc3)cc2)CC1 [Example 175] |
| 7.34 | 9.72 | 5.72 | O=C(NO)C1(S(=O)(=O)c2ccc(-c3cnc(OCC4CC4)cn3)cc2)CCOCC1 [Example 168] |
| 6.49 | 9.58 | 5.41 | CCCCc1ccc(-c2ccc(S(=O)(=O)C3(C(=O)NO)CCOCC3)cc2)cc1 [Example 91] |
| 6.66 | 10.01 | 6.01 | O=C(NO)C1(S(=O)(=O)c2ccc(-c3ccc(CCC(F)(F)C(F)(F)F)cn3)cc2)CCOCC1 [Example 201] |
